Data reported in US9872840B2, “Effect of garcinol in delaying the progression of diabetic nephropathy” (Delhi Institute of Pharmaceutical Sciences and Research, priority 2013, dated 2018).

Legend:
Assay type in all cases: in vivo, rat
STZ diabetic rats [1] = assay: Kidney histopathology, glomerulosclerotic index (periodic acid-Schiff); conditions: kidney of STZ diabetic rats, 8 weeks; sclerosis graded 0 to 4; garcinol 200 mg/kg, olmesartan 6 mg/kg, glimepiride 1 mg/kg
From the text: Kidney sections were stained with periodic acid-Schiff's reagent and Masson's modified trichrome to assess glomerulosclerosis and collagenous tubulointerstitial matrix, respectively.
In 4 μm kidney sections stained with periodic acid-Schiff's reagent, 150 glomeruli from each animal were examined. The extent of sclerosis in each glomerulus was subjectively graded on a scale of 0 to 4, with the following grades: grade 0 normal, grade 1 sclerotic area <25% (minimal), grade 2 sclerotic area 25-50% (moderate), grade 3 sclerotic area 50-75% (moderate to severe) and grade 4 sclerotic area 75-100% (severe). A glomerulosclerotic index was then calculated using the formula: […]
Where GSI is glomerulosclerotic index, Fi is the % of glomeruli in the rat with a given score (i).

STZ diabetic rats [2] = assay: Homeostatic model assessment (HOMA-Index, β-cell function) in STZ diabetic rats; conditions: STZ diabetic rats after treatment; mean ± S.E.M., five animals
From the text: The homeostatic model assessment (HOMA) is a method used to quantify insulin resistance and beta-cell function (Homeostasis model assessment: insulin resistance and beta-cell function from fasting plasma glucose and insulin concentrations in man. Diabetologia 28: 412-9.). The approximating equation for insulin resistance, in the early model, used a fasting plasma sample, and was derived by use of the insulin-glucose product, divided by a constant. HOMA-IR=(Glucose×Insulin)/405;HOMA-% B=([…])/(Glucose-63)
Where IR is insulin resistance and % B is the β-cell function where Glucose is given in mg/dl and Insulin is given in μU/mL (both during fasting). Garcinol inhibited insulin resistance assessed by HOMA-Index with significance when compared with the diabetic group.

STZ diabetic rats [3] = assay: Renal function and biochemical parameters in plasma/serum of STZ diabetic rats; conditions: 8 weeks, garcinol 200 mg/kg, olmesartan 6 mg/kg, glimepiride 1 mg/kg
Experimental: The Garcinol used for the experimental studies was bought from Sami Labs, Hyderabad. It was administered at the dose of 200 mg/kg dispersed in water with 1% CMC. Further, the experimental procedures were conducted according to the Institutional Animal Ethical Committee (protocol no. DIPSAR/IAEC/2009/01) and CPCSEA guidelines. All rats were housed under conventional conditions with controlled temperature, humidity and light (12 hours light-dark cycle), and were provided with a standard commercial diet and water (ad libitum). Healthy albino rats of Wistar strain were kept for breeding. Diabetes was induced by administration of streptozotocin (STZ, 90 mg/kg, i.p.) to a group of 2 day old pups. Age-matched control rats were given an equal volume of vehicle and considered as ‘Normal’ group of rats. Six weeks after injection, the blood glucose level was measured from the tail vein. Rats with a fasting blood glucose level over 160 mg/dl were considered as diabetic.
After 6 weeks, four groups of animals, each comprising of 8 animals were made. The groups were assigned to receive vehicle or garcinol (200 mg/kg dispersed in 1% CMC); Olmesartan (6 mg/kg/day) and Glimepiride (1 mg/kg/day) once daily for 8 weeks. After the final drug administration, body weight was measured and blood samples were collected in both fasting and post prandial conditions. The kidney of treated and untreated animals were isolated and fixed in 10% buffered formalin solution to prepare paraffin sections.
Biochemical estimation for glucose, insulin, albumin and total proteins; glomerular proteins (viz β-2 microglobulin, serum cystatin c and serum creatinine) for the determination of GFR; inflammatory cytokines and growth factors like Tumor necrosis factor (TNF-α), Nitric Oxide (NO), Transforming growth factor (TGF-β1) and Vascular endothelial growth factor (VEGF) and kidney specific molecular markers involving adiponectin and erythropoietin were made in plasma/serum.

CCC1=C(C)CN(C(=O)NCCc2ccc(S(=O)(=O)NC(=O)N[C@H]3CC[C@H](C)CC3)cc2)C1=O [Glimepiride, glimepiride]
GSI (glomerulosclerotic index) (STZ diabetic rats [1]): 2.8
% BETA-CELL FUNCTION (STZ diabetic rats [2]): 35.6 ± 5.24
HOMA-INDEX (STZ diabetic rats [2]): 1.53 ± 0.144
Adiponectin (STZ diabetic rats [3]): 2.277 ± 0.86 µg/mL
Beta-2 microglobulin (GFR) (STZ diabetic rats [3]): 1.42 ± 0.21 µg/mL
Erythropoietin (STZ diabetic rats [3]): 0.5141 ± 0.13 mlU/ml
Nitric Oxide (STZ diabetic rats [3]): 0.33 ± 0.064 nmol/µL
Plasma Insulin (STZ diabetic rats [3]): 14.38 ± 1.29 ng/mL
Serum Creatinine (GFR) (STZ diabetic rats [3]): 1.873 ± 0.56 mg/dL
Serum CystatinC (GFR) (STZ diabetic rats [3]): 0.2933 ± 0.033 ng/mL
TGF-β (STZ diabetic rats [3]): 8.316 ± 2.06 pg/mL
TNF-α (STZ diabetic rats [3]): 0.08563 ± 0.0167 pg/mL
Total Proteins (STZ diabetic rats [3]): 1.956 ± 0.09 mg/mL
VEGF (STZ diabetic rats [3]): 61.29 ± 2.54 pg/mL
